Structures can show the parent of a compound that is named as a salt.

`CCOc1ccc(C(=O)Nc2ccccc2NC(=O)c2cccc(C(=N)N)c2)cc1` [Example 38, N^1-[3-(amino(imino)methyl)benzoyl]-N^2-(4-ethoxybenzoyl)-1,2-benzenediamine]: the melting point (usually the temperature of the solid-liquid transition) was 163 to 165 °C.

With `CC(C)c1ccc(C(=O)Nc2ccccc2NC(=O)c2cccc(C(=N)N)c2)cc1.Cl`, the melting point lay within 227 to 229 °C.

Consider `COc1ccc(NC(=O)c2ccccc2NC(=O)c2cccc(C(=N)N)c2)cc1` (as salt: salt) [Example 12, 2-[3-(amino(imino)methyl)benzoylamino]-N-(4-methoxyphenyl)benzamide], for which the melting point fell in the range of 163 to 167 °C.

In turn, `CC(C)(C)c1ccc(C(=O)Nc2ccccc2NC(=O)c2cccc(C(=N)N)c2)cc1.Cl` came in with a melting point of 196 to 198 °C.

`CC(C)(C)c1ccc(C(=O)Nc2ccccc2C(=O)Nc2cccc(C(=N)N)c2)cc1.Cl`: the melting point lay in the range of 194 to 196 °C.
